Test results: patent publication US12630517B2, “Process for preparing large size isoxazoline particles” (Intervet Inc., priority 2017, dated 2026)

Experiments:
Format in all cases: physicochemical
[1] = Volume weighted particle size distribution by laser diffraction (Sympatec Helos); conditions: for x50/d50 particle size dimension at end of recycle loop: in-process slurry at 54° C., after the recycle loop, before final cooling
Excerpt: As used herein, particle size data reported are volume weighted as measured by conventional particle techniques well known to those skilled in the art, such as static light scattering (also known as laser diffraction), image analysis or sieving. More discussion of particle size measurement is provided below.
The volume weighted particle size can be measured by sieving, microscopy or laser diffraction (Malvern or Sympatec) The volume weighted particle size measurement can be performed with a Malvern Mastersizer 2000 with the Hydro 2000G measuring cell, or with a Horiba LA-910 laser scattering particle size distribution analyzer. The volume weighted particle size can be measured by a Sympatec Helos instrument.
(§1) The volume weighted particle size of the fluralaner crystals was measured by laser diffraction (Sympatec Helos) to determine the particle size distribution. The mechanical resiliency was also determined during a pressure titration experiment. […] In this case, this material is the product of the previous commercial process using an unseeded, distillative crystallization process from an ethyl acetate, toluene solvent system. Of note is the lower particle size and general wider distribution of sizes of the particles.

[2] = Pressure titration for mechanical resiliency (Sympatec HELOS), 1 to 3 bar dispersion pressure; conditions: for reduction in x50/d50 from the pressure titration from 1 bar to 3 bar: dried particles of the example (FIG. 10, FIG. 15)
Excerpt: Mechanical resiliency is the resistance of crystals or particles to break into smaller crystals or particles when exposed to pressure or stress from other sources. Mechanical resiliency can be measured by a pressure titration using the Sympatec HELOS. This instrument can simultaneously measure the particle size distribution. In this experiment, pressure is applied to the crystals to disperse or separate them one from another. The change in the particle size distribution measurement of d50 is monitored as the pressure on the crystals is increased from 1 bar to 3 bars. Preferably, the isoxazoline compound particles of the subject invention will not decrease their particle size distribution measurement of d50 by more than 30-40% when the dispersion pressure is increased from 1 to 3 bar.
as §1
In this experiment, the particle size distribution was monitored as the particles are exposed to increasing pressure from 1 bar to 3 bar. […] Moreover, the particle size distribution curve broadens and shifts towards smaller particle sizes. This is evidence that these particles are being broken under the increased pressure and is an indication that the particles were very thin.

[3] = Scanning electron microscopy of particles
Excerpt: Scanning electron microscopy (SEM) is an analytical instrument that uses a focused beam of high-energy electrons to generate a variety of signals at the surface of solid specimens. The signals reveal information about the sample including external morphology (texture), chemical composition, and crystalline structure and orientation of materials making up the sample. FIG. 8 is a scanning electron microscopy image of fluralaner particles that were not produced the inventive process. Of note is that these crystals are rather thin. FIG. 9 is a scanning electron microscopy image of fluralaner particles that were produce by the inventive process. In contrast to the particles shown in FIG. 8, these particles are large (around 100 μm) and thick (around 10-20 μm).

[4] = Particle size by wet method, Microtrac static light scattering; conditions: FIG. 13
Procedure: FIG. 13—Particle size distribution of the material made from Example 4. […] The particle size measurement for this sample was conducted with a wet method using a Microtrac static light scattering system.

[5] = FIG. 9, particles produced by the inventive process

Cc1cc(C2=NOC(c3cc(Cl)cc(Cl)c3)(C(F)(F)F)C2)ccc1C(=O)NCC(=O)NCC(F)(F)F (stereo not drawn) [Example 3]
x50 of resulting material ([1]; FIG. 10, dried particles): 108 | x50/d50 particle size dimension at end of recycle loop [1]: approximately 45 μm | reduction in x50/d50 from the pressure titration from 1 bar to 3 bar [2]: approximately 24%

Cc1cc(C2=NOC(c3cc(Cl)cc(Cl)c3)(C(F)(F)F)C2)ccc1C(=O)NCC(=O)NCC(F)(F)F (stereo not drawn) [Example 1]
x50/d50 particle size dimension at end of recycle loop [1]: approximately 40 μm

Cc1cc(C2=NOC(c3cc(Cl)cc(Cl)c3)(C(F)(F)F)C2)ccc1C(=O)NCC(=O)NCC(F)(F)F (stereo not drawn) [fluralaner, 4-[5-(3,5-Dichlorophenyl)-5-trifluoromethyl-4,5-dihydroisoxazol-3-yl]-2-methyl-N-[(2,2,2-trifluoro-ethylcarbamoyl)-methyl]-benzamide]
particle size (x50) at 2 bar dispersing pressure ([2]; FIG. 5, crystals not produced by the inventive process, 2 bar): 80 μm | particle size (d50) at 1 bar ([2]; FIG. 6, crystals produced by the inventive process, 1 bar): 100 μm | particle size (d50) at 3 bar ([2]; FIG. 6, crystals produced by the inventive process, 3 bar): 73 μm | loss of d50 in pressure titration ([2]; FIG. 7, additional batch produced by the inventive process): around 35% | d50 after pressure titration ([2]; FIG. 7, additional batch produced by the inventive process, after pressure increase): around 67 μm | original d50 ([2]; FIG. 7, additional batch produced by the inventive process, before pressure increase): around 103 μm | d50 reduction in pressure titration test ([2]; FIG. 10, crystals produced by the inventive process, % of the original value): around 25% | particle thickness by SEM ([3]; FIG. 8, particles not produced by the inventive process): rather thin | particle size by SEM [3, 5]: around 100 μm | particle thickness by SEM [3, 5]: 10-20 μm

Cc1cc(C2=NOC(c3cc(Cl)cc(Cl)c3)(C(F)(F)F)C2)ccc1C(=O)NCC(=O)NCC(F)(F)F (stereo not drawn) [Example 4]
x50/d50 particle size dimension at end of recycle loop [1]: approximately 40 μm | d10 [4]: 47.3 μm | d50 [4]: 103 μm | d90 [4]: 158.8 μm

Cc1cc(C2=NOC(c3cc(Cl)cc(Cl)c3)(C(F)(F)F)C2)ccc1C(=O)NCC(=O)NCC(F)(F)F (stereo not drawn) [Example 5]
average d50 of resulting material ([1]; FIG. 15, crystallised from 5:3 toluene:ethyl acetate): 99 μm | x50/d50 particle size dimension at end of recycle loop [1]: approximately 50 μm | reduction in x50/d50 from the pressure titration from 1 bar to 3 bar [2]: approximately 20%
